Source: PubChem BioAssay AID330 (DTP/NCI, 2004)
Values joined by “and” are separate entries in the source; they are usually repeats but may differ in a detail not shown here. Equal values may be shown once. Toxic doses and inconclusive results are not listed.

Test system: P388 leukemia ip, CD2F1 mice, survival T/C
Experiment: NCI In Vivo Anticancer Drug Screen. Data for tumor model P388 Leukemia (intraperitoneal) in CD2F1 (CDF1) mice
Conditions: endpoint: median survival time, higher = longer survival
In short: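 Mice carrying the transplanted tumor received test compound or vehicle. Survival was recorded in each group, and the value is the treated-group measurement divided by that of the vehicle-treated control group.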

[1] = dose: 60.0 mg/kg/injection, schedule: Q01DX005 (ip), vehicle: saline with Tween-80
[2] = dose: 120.0 mg/kg/injection, schedule: Q01DX005 (ip), vehicle: saline with Tween-80
[3] = dose: 25.0 mg/kg/injection, schedule: Q01DX009 (ip), vehicle: saline with Tween-80
[4] = dose: 50.0 mg/kg/injection, schedule: Q01DX009 (ip), vehicle: saline with Tween-80
[5] = dose: 100.0 mg/kg/injection, schedule: Q01DX009 (ip), vehicle: saline with Tween-80
[6] = dose: 200.0 mg/kg/injection, schedule: Q04DX003 (ip), vehicle: saline sonified
[7] = dose: 240.0 mg/kg/injection, schedule: Q01DX005 (ip), vehicle: saline with Tween-80
[8] = dose: 50.0 mg/kg/injection, schedule: Q01DX009 (ip), vehicle: saline
[9] = dose: 100.0 mg/kg/injection, schedule: Q01DX009 (ip), vehicle: saline
[10] = dose: 50.0 mg/kg/injection, schedule: Q01DX009 (ip), vehicle: Klucel (hydroxypropylcellulose) (HPC)
[11] = dose: 100.0 mg/kg/injection, schedule: Q01DX009 (ip), vehicle: Klucel (hydroxypropylcellulose) (HPC)
[12] = dose: 200.0 mg/kg/injection, schedule: Q01DX009 (ip), vehicle: Klucel (hydroxypropylcellulose) (HPC)

SMILES: CC(C(=O)O)N1C(=O)c2ccccc2C1=O (stereo not drawn)
- T/C (dose: 4.0 mg/kg/injection, schedule: Q01DX009 (ip), vehicle: water): 105 % of control
- T/C (dose: 8.0 mg/kg/injection, schedule: Q01DX009 (ip), vehicle: water): 100 % of control
- T/C (dose: 16.0 mg/kg/injection, schedule: Q01DX009 (ip), vehicle: water): 103 % of control
- T/C (dose: 32.0 mg/kg/injection, schedule: Q01DX009 (ip), vehicle: water): 100 % of control
- T/C (dose: 64.0 mg/kg/injection, schedule: Q01DX009 (ip), vehicle: water): 99 % of control

SMILES: N#CC1(NC(=O)C(Cl)Cl)c2ccccc2-c2ccccc21
- T/C [1]: 100 % of control
- T/C [2]: 93 % of control

SMILES: COc1cc(NC(=O)CN(CCCl)CCCl)cc(OC)c1OC
- T/C [3]: 157 % of control
- T/C [4]: 213 % of control
- T/C (dose: 100.0 mg/kg/injection, schedule: Q01DX009 (ip), vehicle: saline sonified): 163 % of control
- T/C [5]: 120 % of control
- T/C (dose: 132.0 mg/kg/injection, schedule: Q04DX003 (ip), vehicle: saline sonified): 100 % of control
- T/C (dose: 200.0 mg/kg/injection, schedule: Q01DX009 (ip), vehicle: saline sonified): 159 % of control
- T/C [6]: 110 % of control

SMILES: NC(=S)NNC(=O)CCC(=O)Nc1ccccc1Cl
- T/C [1]: 103 % of control
- T/C [2]: 102 % of control
- T/C [7]: 99 % of control

SMILES: C=C[C@H]1[C@H](OC2OC(CO)C(O)C(O)C2O)OC=C2C(=O)N3CCS[C@H]3C[C@H]21 (stereo partly drawn)
- T/C (dose: 9.38 mg/kg/injection, schedule: Q01DX005 (ip), vehicle: Klucel (hydroxypropylcellulose) (HPC)): 97 % of control
- T/C (dose: 18.75 mg/kg/injection, schedule: Q01DX005 (ip), vehicle: Klucel (hydroxypropylcellulose) (HPC)): 98 % of control
- T/C (dose: 37.5 mg/kg/injection, schedule: Q01DX005 (ip), vehicle: Klucel (hydroxypropylcellulose) (HPC)): 107 % of control
- T/C (dose: 75.0 mg/kg/injection, schedule: Q01DX005 (ip), vehicle: Klucel (hydroxypropylcellulose) (HPC)): 95 % of control
- T/C (dose: 150.0 mg/kg/injection, schedule: Q01DX005 (ip), vehicle: Klucel (hydroxypropylcellulose) (HPC)): 98 % of control

SMILES: C1CC2OCC1O2 (stereo not drawn)
- T/C [8]: 100 % of control
- T/C [9]: 106 % of control
- T/C (dose: 200.0 mg/kg/injection, schedule: Q01DX009 (ip), vehicle: saline): 100 % of control

SMILES: NC(CCCCCCC(N)C(=O)c1ccccc1)C(=O)c1ccccc1 (stereo not drawn)
- T/C [1]: 98 % of control
- T/C [2]: 98 % of control
- T/C [7]: 91 % of control

SMILES: O=[N+]([O-])c1cccc(NC(c2ccc(N(CCCl)CCCl)cc2)P(=O)(Oc2ccccc2)Oc2ccccc2)c1 (stereo not drawn)
- T/C [10]: 95 % of control
- T/C [11]: 98 % of control
- T/C [12]: 95 % of control

SMILES: CCOC(=O)Nc1ccc2nc(N3CCCCCC3)sc2c1
- T/C [4]: 101 % of control
- T/C [5]: 100 % of control
- T/C (dose: 200.0 mg/kg/injection, schedule: Q01DX009 (ip), vehicle: saline with Tween-80): 102 % of control

SMILES: C=C1C(O)C2OC3(CCC(/C=C/C(C)C4CC5(C)SC5C5(OC(CC(C)(O)C(=O)O)CCC5O)O4)O3)CCC2OC1C(O)CC(C)C1OC2(CCCCO2)CCC1C (stereo not drawn)
- T/C (dose: 1.87 micrograms/kg/injection, schedule: Q01DX005 (ip), vehicle: saline + alcohol): 102 % of control and 103 % of control
- T/C (dose: 3.75 micrograms/kg/injection, schedule: Q01DX005 (ip), vehicle: saline + alcohol): 103 % of control and 120 % of control and 93 % of control
- T/C (dose: 7.5 micrograms/kg/injection, schedule: Q01DX005 (ip), vehicle: saline + alcohol): 100 % of control and 103 % of control
- T/C (dose: 15.0 micrograms/kg/injection, schedule: Q01DX005 (ip), vehicle: saline + alcohol): 111 % of control

SMILES: COc1cc2c(cc1OC)C(CN)C2 (stereo not drawn)
- T/C (dose: 25.0 mg/kg/injection, schedule: Q01DX009 (ip), vehicle: saline): 111 % of control
- T/C [8]: 109 % of control
- T/C [9]: 119 % of control

SMILES: O=c1[nH]cnc2nn(C3OC(CO)C(O)C3O)cc12 (stereo not drawn)
- T/C (dose: 0.39 mg/kg/injection, schedule: Q01DX009 (ip), vehicle: saline with Tween-80): 104 % of control and 117 % of control
- T/C (dose: 0.78 mg/kg/injection, schedule: Q01DX009 (ip), vehicle: saline with Tween-80): 104 % of control and 116 % of control
- T/C (dose: 1.56 mg/kg/injection, schedule: Q01DX009 (ip), vehicle: saline with Tween-80): 107 % of control
- T/C (dose: 3.12 mg/kg/injection, schedule: Q01DX009 (ip), vehicle: saline with Tween-80): 93 % of control
- T/C (dose: 6.25 mg/kg/injection, schedule: Q01DX009 (ip), vehicle: saline with Tween-80): 93 % of control
- T/C (dose: 12.5 mg/kg/injection, schedule: Q01DX009 (ip), vehicle: saline with Tween-80): 101 % of control
- T/C [3]: 96 % of control
- T/C [4]: 104 % of control

SMILES: O=C(Nn1nnnc1-c1ccccc1)c1ccccc1
- T/C (dose: 25.0 mg/kg/injection, schedule: Q01DX005 (ip), vehicle: Klucel (hydroxypropylcellulose) (HPC)): 97 % of control
- T/C (dose: 50.0 mg/kg/injection, schedule: Q01DX005 (ip), vehicle: Klucel (hydroxypropylcellulose) (HPC)): 92 % of control
- T/C (dose: 100.0 mg/kg/injection, schedule: Q01DX005 (ip), vehicle: Klucel (hydroxypropylcellulose) (HPC)): 101 % of control

SMILES: Nc1ccc(-c2csc(-c3ccc(Br)cc3)n2)cc1
- T/C (dose: 12.5 mg/kg/injection, schedule: Q01DX009 (ip), vehicle: Klucel (hydroxypropylcellulose) (HPC)): 100 % of control
- T/C (dose: 25.0 mg/kg/injection, schedule: Q01DX009 (ip), vehicle: Klucel (hydroxypropylcellulose) (HPC)): 91 % of control
- T/C [10]: 88 % of control

SMILES: CCC1OC(=O)C1[Si](C)(C)C (stereo not drawn)
- T/C (dose: 100.0 mg/kg/injection, schedule: Q01DX001 (ip), vehicle: saline): 99 % of control
- T/C (dose: 200.0 mg/kg/injection, schedule: Q01DX001 (ip), vehicle: saline): 103 % of control
- T/C (dose: 400.0 mg/kg/injection, schedule: Q01DX001 (ip), vehicle: saline): 103 % of control

SMILES: CC(C)Oc1ccc(C(=O)NS(=O)(=O)c2ccc(N=Nc3c(O)n(-c4ccccc4)n(-c4ccccc4)c3=O)cc2)cc1
- T/C [10]: 94 % of control
- T/C [11]: 91 % of control
- T/C [12]: 93 % of control

SMILES: N#Cc1c(N)nc2c(c1N)CC(CO)O2 (stereo not drawn)
- T/C [4]: 96 % of control
- T/C [5]: 93 % of control

SMILES: CN(C)c1ncnc2c1cnn2C
- T/C [4]: 109 % of control
- T/C (dose: 50.0 mg/kg/injection, schedule: Q04DX003 (ip), vehicle: saline sonified): 100 % of control
- T/C (dose: 100.0 mg/kg/injection, schedule: Q04DX003 (ip), vehicle: saline sonified): 100 % of control
- T/C [6]: 109 % of control

SMILES: C[Se](=C(C(=O)c1ccccc1)C(=O)c1ccccc1)c1ccccc1 (stereo not drawn)
- T/C (dose: 100.0 mg/kg/injection, schedule: Q04DX002 (ip), vehicle: saline): 99 % of control
- T/C (dose: 200.0 mg/kg/injection, schedule: Q04DX002 (ip), vehicle: saline): 100 % of control
- T/C (dose: 400.0 mg/kg/injection, schedule: Q04DX002 (ip), vehicle: saline): 98 % of control

SMILES: O=C(Oc1ccc[nH]c1=O)c1cccc(C(F)(F)F)c1
- T/C (dose: 12.5 mg/kg/injection, schedule: Q01DX009 (ip), vehicle: distilled water + Tween-80): 100 % of control
- T/C (dose: 25.0 mg/kg/injection, schedule: Q01DX009 (ip), vehicle: distilled water + Tween-80): 100 % of control
- T/C (dose: 50.0 mg/kg/injection, schedule: Q01DX009 (ip), vehicle: distilled water + Tween-80): 102 % of control
- T/C (dose: 100.0 mg/kg/injection, schedule: Q01DX009 (ip), vehicle: distilled water + Tween-80): 96 % of control
- T/C (dose: 200.0 mg/kg/injection, schedule: Q01DX009 (ip), vehicle: distilled water + Tween-80): 90 % of control

SMILES: C(=N/Nc1ccccc1)/C(=N\Nc1ccccc1)C1CCN(Cc2ccccc2)CC1
- T/C (dose: 25.0 mg/kg/injection, schedule: Q01DX001 (ip), vehicle: Klucel (hydroxypropylcellulose) (HPC)): 103 % of control
- T/C (dose: 50.0 mg/kg/injection, schedule: Q01DX001 (ip), vehicle: Klucel (hydroxypropylcellulose) (HPC)): 107 % of control
- T/C (dose: 100.0 mg/kg/injection, schedule: Q01DX001 (ip), vehicle: Klucel (hydroxypropylcellulose) (HPC)): 100 % of control

SMILES: Cc1ccc(/C=C/C(=O)C(C)CN(C)C)cc1 (stereo not drawn)
- T/C (dose: 15.0 mg/kg/injection, schedule: Q01DX005 (ip), vehicle: saline): 100 % of control
- T/C (dose: 30.0 mg/kg/injection, schedule: Q01DX005 (ip), vehicle: saline): 99 % of control
- T/C (dose: 60.0 mg/kg/injection, schedule: Q01DX005 (ip), vehicle: saline): 98 % of control and 100 % of control
- T/C (dose: 120.0 mg/kg/injection, schedule: Q01DX005 (ip), vehicle: saline): 100 % of control and 106 % of control and 107 % of control
- T/C (dose: 240.0 mg/kg/injection, schedule: Q01DX005 (ip), vehicle: saline): 119 % of control
